Source: patent US20200247812A1 (Integral Biosciences Private Limited, priority 2018, published 2020)

target: T1, ALK 5 (Homo sapiens, UniProt P36897); assay: In vitro kinase assay (ALK5 IC50, LanthaScreen Terbium labeled TR-FRET); format: biochemical; settings: TGF-β kinase 6 nM, ATP 10 μM, read-out: Enzyme Activity ALK 5 IC50
T1 sequence (P36897 34-503): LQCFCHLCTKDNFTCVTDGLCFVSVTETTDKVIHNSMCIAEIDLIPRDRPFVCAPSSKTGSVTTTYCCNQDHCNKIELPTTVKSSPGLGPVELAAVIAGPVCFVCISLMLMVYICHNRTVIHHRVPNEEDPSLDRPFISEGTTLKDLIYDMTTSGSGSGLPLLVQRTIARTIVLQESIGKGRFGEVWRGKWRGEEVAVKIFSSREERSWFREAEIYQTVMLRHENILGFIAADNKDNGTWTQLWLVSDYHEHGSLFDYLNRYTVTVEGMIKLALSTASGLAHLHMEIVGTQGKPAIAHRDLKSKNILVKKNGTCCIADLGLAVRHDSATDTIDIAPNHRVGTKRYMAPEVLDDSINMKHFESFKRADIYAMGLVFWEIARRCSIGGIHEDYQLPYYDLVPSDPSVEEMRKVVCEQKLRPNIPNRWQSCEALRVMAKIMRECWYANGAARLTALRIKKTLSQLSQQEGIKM
Description: Compounds of the invention were screened in an in vitro kinase assay against ALK 5, a members of the TGF-β family of Ser/Thr kinases. Standard kinase testing conditions and techniques were employed. IC50 values of compounds against TGF-ß kinase was determined by LanthaScreen™ Terbium Labeled TR-FRET assay. Kinase assays were performed in 1X kinase buffer (# PV6135, Invitrogen, Life Technologies Grand Island, N.Y.) where total reaction volume was 10 μL in low-volume 384-well plates (#4511, Corning). Serially diluted compounds (3-fold) were incubated with TGF-β kinase (6 nM) for 10 min, following which a mixture of ATP (10 μM) (# A1852, Sigma, St-Louis, Mo.) and fluorescent-PolyGT substrate (200 nM); Cat # PV3610, Invitrogen, Life Technologies Grand Island, N.Y.) was added and incubated in dark at room temperature for 1 h. After 1 h, 10 μL stop solution containing Terbium labeled antibody (4 nM; Cat # PV3529, Invitrogen, Life Technologies Grand Island, N.Y.) and EDTA (# E5134, Sigma, St-Louis, Mo.; 20 mM) in TR-FRET dilution buffer (Cat # PV3574, Invitrogen, Life Technologies Grand Island, N.Y.) was added. Readings were taken in a Synergy Neo Plate reader (BioTek, Winooski) at single excitation of 340 nm and Dual emission at 495 nm and 520 nm respectively.
The % activity of test samples was calculated as (Sample-Min)×100/(Max −Min). [Max: DMSO control, complete reaction with enzyme with DMSO and Min: No enzyme with DMSO]. Percent inhibition (100-% activity) was fitted to the “four-parameter logistic model” in XLfit for determination of IC50 values.

First: CNC(=O)c1cnccc1Nc1cc(-c2cc(Cl)ccc2F)c(=O)[nH]c1N(C)C [Compound 1.38, 4-((5-(5-chloro-2-fluorophenyl)-2-(dimethylamino)-6-oxo-1,6-dihydropyridin-3-yl)amino)-N-methylnicotinamide]
Second: CN(C)c1[nH]c(=O)c(-c2cc(Cl)ccc2F)cc1Nc1ccncc1C(=O)NC(C)(C)CO [Compound 1.31, 4-((5-(5-chloro-2-fluorophenyl)-2-(dimethylamino)-6-hydroxypyridin-3-yl)amino)-N-(1-hydroxy-2-methylpropan-2-yl)nicotinamide]
The IC50 of the first is lower: 500 to 2000 nM for the first, greater than 5000 nM for the second. The first is the more potent here.

First: C[C@H](O)CNC(=O)c1cnccc1Nc1cc(-c2cc(Cl)ccc2F)c(=O)n2c1N(C)CCC2 [Compound 1.20, (S)-4-((7-(5-chloro-2-fluorophenyl)-1-methyl-6-oxo-1,3,4,6-tetrahydro-2H-pyrido[1,2-a]pyrimidin-9-yl)amino)-N-(2-hydroxypropyl)nicotinamide]
Second: C[C@@H](CO)NC(=O)c1cnccc1Nc1cc(-c2cc(Cl)ccc2F)c(=O)n2c1N(C)CCC2 [Compound 1.21, (S)-4-((7-(5-chloro-2-fluorophenyl)-1-methyl-6-oxo-1,3,4,6-tetrahydro-2H-pyrido[1,2-a]pyrimidin-9-yl)amino)-N-(1-hydroxypropan-2-yl)nicotinamide]
The IC50 of the first is higher: greater than 5000 nM for the first, 500 to 2000 nM for the second. The second is the more potent here.

`CC(=O)Nc1cc(Nc2cc(-c3ccc(F)c(C)c3)c(=O)[nH]c2C(C)C)ccn1` [Compound 1.83, N-(4-((5-(4-fluoro-3-methylphenyl)-2-isopropyl-6-oxo-1,6-dihydropyridin-3-yl)amino)pyridin-2-yl)acetamide] and `CC(=O)Nc1cc(Nc2cc(-c3cccc(C#N)c3)c(=O)[nH]c2C(C)C)ccn1` [Compound 1.54, N-(4-((5-(3-cyanophenyl)-2-isopropyl-6-oxo-1,6-dihydropyridin-3-yl)amino)pyridin-2-yl)acetamide] cannot be ordered by IC50: no more than 500 nM for the first, 500 to 2000 nM for the second.

First: C[C@@H](CO)NC(=O)c1cnccc1Nc1c[nH]c(=O)c(-c2cc(Cl)ccc2F)c1 [Compound 1.2, (S)-4-((5-(5-chloro-2-fluorophenyl)-6-oxo-1,6-dihydropyridin-3-yl)amino)-N-(1-hydroxypropan-2-yl)nicotinamide]
Second: CC(C)c1[nH]c(=O)c(-c2cc(Cl)ccc2F)cc1Nc1ccncc1C(=O)N[C@@H](C)CO [Compound 1.6]
The IC50 of the first is higher: greater than 5000 nM for the first, 500 to 2000 nM for the second. The second is the more potent here.

First: NC(=O)c1cnccc1Nc1cc(-c2cc(Cl)ccc2F)c(=O)[nH]c1C1CC1 [Compound 1.74, 4-((5-(5-chloro-2-fluorophenyl)-2-cyclopropyl-6-oxo-1,6-dihydropyridin-3-yl)amino)nicotinamide]
Second: Cc1cnc(Nc2cc(Nc3cc(-c4cc(Cl)ccc4F)c(=O)[nH]c3C3CC3)ccn2)s1 [Compound 1.77, 3-(5-chloro-2-fluorophenyl)-6-cyclopropyl-5-((2-((5-methylthiazol-2-yl)amino)pyridin-4-yl)amino)pyridin-2(1H)-one]
The IC50 of the first is lower: no more than 500 nM for the first, 2000 to 5000 nM for the second.

`CN(C)c1[nH]c(=O)c(-c2cc(Cl)ccc2F)cc1Nc1ccncc1` [Compound 1.14, 3-(5-chloro-2-fluorophenyl)-6-(dimethylamino)-5-(pyridin-4-ylamino)pyridin-2(1H)-one] and `CN(C)c1[nH]c(=O)c(-c2cc(Cl)ccc2F)cc1Nc1ccnc2ccccc12` [Compound 1.16, 3-(5-chloro-2-fluorophenyl)-6-(dimethylamino)-5-(quinolin-4-ylamino)pyridin-2(1H)-one] cannot be ordered by IC50: greater than 5000 nM for the first, greater than 5000 nM for the second.

`CCc1[nH]c(=O)c(-c2cc(Cl)ccc2F)cc1Nc1ccnc2ccncc12` [Compound 1.71, 5-((1,6-naphthyridin-4-yl)amino)-3-(5-chloro-2-fluorophenyl)-6-ethylpyridin-2(1H)-one] and `COc1[nH]c(=O)c(-c2cc(Cl)ccc2F)cc1Nc1ccnc2ccncc12` [Compound 1.73, 5-((1,6-naphthyridin-4-yl)amino)-3-(5-chloro-2-fluorophenyl)-6-methoxypyridin-2(1H)-one] cannot be ordered by IC50: no more than 500 nM for the first, 500 to 2000 nM for the second.

First: CC(C)c1[nH]c(=O)c(-c2ccsc2)cc1Nc1ccnc2ccncc12 [Compound 1.80, 5-((1,6-naphthyridin-4-yl)amino)-6-isopropyl-3-(thiophen-3-yl)pyridin-2(1H)-one]
Second: Cc1cc(-c2cc(Nc3ccnc4ccncc34)c(C(C)C)[nH]c2=O)ccc1F [Compound 1.89, 5-((1,6-naphthyridin-4-yl)amino)-3-(4-fluoro-3-methylphenyl)-6-isopropylpyridin-2(1H)-one]
The IC50 of the first is lower: 500 to 2000 nM for the first, 2000 to 5000 nM for the second.

`CC(C)c1[nH]c(=O)c(-c2cc(Cl)ccc2F)cc1Nc1ccnc(NS(C)(=O)=O)c1` [Compound 1.63, N-(4-((5-(5-chloro-2-fluorophenyl)-2-isopropyl-6-oxo-1,6-dihydropyridin-3-yl)amino)pyridin-2-yl)methanesulfonamide] and `CC(C)c1[nH]c(=O)c(-c2cc(Cl)ccc2F)cc1Nc1ccnc(N)c1` [Compound 1.44, 5-((2-aminopyridin-4-yl)amino)-3-(5-chloro-2-fluorophenyl)-6-isopropylpyridin-2(1H)-one] cannot be ordered by IC50: greater than 5000 nM for the first, greater than 5000 nM for the second.

First: C[C@@H](CO)NC(=O)c1cnccc1Nc1cc(-c2cc(Cl)ccc2F)c(=O)n2c1N(C)CC2 [Compound 1.22, (S)-4-((6-(5-chloro-2-fluorophenyl)-1-methyl-5-oxo-1,2,3,5-tetrahydroimidazo[1,2-a]pyridin-8-yl)amino)-N-(1-hydroxypropan-2-yl)nicotinamide]
Second: CN1CCn2c1c(Nc1ccnc3[nH]ccc13)cc(-c1cc(Cl)ccc1F)c2=O [Compound 1.18, 8-((1H-pyrrolo[2,3-b]pyridin-4-yl)amino)-6-(5-chloro-2-fluorophenyl)-1-methyl-2,3-dihydroimidazo[1,2-a]pyridin-5(1H)-one]
The IC50 of the first is higher: 2000 to 5000 nM for the first, no more than 500 nM for the second. The second is the more potent here.

`COc1[nH]c(=O)c(-c2cc(Cl)ccc2F)cc1Nc1ccnc(NC(C)=O)c1` [Compound 1.75, N-(4-((5-(5-chloro-2-fluorophenyl)-2-methoxy-6-oxo-1,6-dihydropyridin-3-yl)amino)pyridin-2-yl)acetamide] and `CC(C)c1[nH]c(=O)c(-c2cc(Cl)ccc2F)cc1Nc1ccnc(NC(=O)CN2CCCC2)c1` [Compound 1.47, N-(4-((5-(5-chloro-2-fluorophenyl)-2-isopropyl-6-oxo-1,6-dihydropyridin-3-yl)amino)pyridin-2-yl)-2-(pyrrolidin-1-yl)acetamide] cannot be ordered by IC50: no more than 500 nM for the first, no more than 500 nM for the second.

First: C[C@H](O)CNC(=O)c1cnccc1Nc1cc(-c2cc(Cl)ccc2F)c(=O)n(C)c1 [Compound 1.7, (S)-4-((5-(5-chloro-2-fluorophenyl)-1-methyl-6-oxo-1,6-dihydropyridin-3-yl)amino)-N-(2-hydroxypropyl)nicotinamide]
Second: CC(C)c1[nH]c(=O)c(-c2ccccc2F)cc1Nc1ccncc1C(=O)NC[C@H](C)O [Compound 1.3, (S)-4-((5-(2-fluorophenyl)-2-isopropyl-6-oxo-1,6-dihydropyridin-3-yl)amino)-N-(2-hydroxypropyl)nicotinamide]
The IC50 of the first is higher: greater than 5000 nM for the first, 2000 to 5000 nM for the second. The second is the more potent here.

First: CC(C)c1[nH]c(=O)c(-c2ccc(F)nc2)cc1Nc1ccnc2[nH]ccc12 [Compound 1.52, 5-((1H-pyrrolo[2,3-b]pyridin-4-yl)amino)-6′-fluoro-6-isopropyl-[3,3′-bipyridin]-2(1H)-one]
Second: CCc1[nH]c(=O)c(-c2ccc(F)c(Cl)c2)cc1Nc1ccnc2[nH]ccc12 [Compound 1.90, 5-((1H-pyrrolo[2,3-b]pyridin-4-yl)amino)-3-(3-chloro-4-fluorophenyl)-6-ethylpyridin-2(1H)-one]
The IC50 of the first is higher: greater than 5000 nM for the first, no more than 500 nM for the second. The second is the more potent here.

`CC(C)c1[nH]c(=O)c(-c2cc(Cl)ccc2F)cc1Nc1ccnc2c1CCC(=O)N2` [Compound 1.62, 5-((5-(5-chloro-2-fluorophenyl)-2-isopropyl-6-oxo-1,6-dihydropyridin-3-yl)amino)-3,4-dihydro-1,8-naphthyridin-2(1H)-one] and `CC(C)c1[nH]c(=O)c(-c2cc(Cl)ccc2F)cc1Nc1ccnc2[nH]ccc(=O)c12` [Compound 1.59, 5-((5-(5-chloro-2-fluorophenyl)-2-isopropyl-6-oxo-1,6-dihydropyridin-3-yl)amino)-1,8-naphthyridin-4(1H)-one] cannot be ordered by IC50: greater than 5000 nM for the first, greater than 5000 nM for the second.

`Cc1cc(-c2cc(Nc3ncnc4c3CC(=O)N4)c(C(C)C)[nH]c2=O)ccc1F` [Compound 1.82, 4-((5-(4-fluoro-3-methylphenyl)-2-isopropyl-6-oxo-1,6-dihydropyridin-3-yl)amino)-5,7-dihydro-6H-pyrrolo[2,3-d]pyrimidin-6-one] showed an IC50 of 2000 to 5000 nM.
